Results: patent US12122761B2, “2-azaspiro[3.4]octane derivatives as M4 agonists” (NOVARTIS AG, priority 2019, dated 2024)

Legend:
[1] = target: T1, Cloned human M1 receptor (CHRM1) stably expressed in HEK293 cells (Homo sapiens, UniProt P11229); assay: CHRM1 Ca++ Flux Assay (agonist mode, FDSS 7000EX); assay type: cell-based; conditions: for Emax: HEK293, Percent Activity, read-out: M1 FDSS PA; for EC50: geometric mean if tested more than once
T1 construct: expressed in transfected cells; host or cells: HEK293
T1 sequence (P11229 1-460): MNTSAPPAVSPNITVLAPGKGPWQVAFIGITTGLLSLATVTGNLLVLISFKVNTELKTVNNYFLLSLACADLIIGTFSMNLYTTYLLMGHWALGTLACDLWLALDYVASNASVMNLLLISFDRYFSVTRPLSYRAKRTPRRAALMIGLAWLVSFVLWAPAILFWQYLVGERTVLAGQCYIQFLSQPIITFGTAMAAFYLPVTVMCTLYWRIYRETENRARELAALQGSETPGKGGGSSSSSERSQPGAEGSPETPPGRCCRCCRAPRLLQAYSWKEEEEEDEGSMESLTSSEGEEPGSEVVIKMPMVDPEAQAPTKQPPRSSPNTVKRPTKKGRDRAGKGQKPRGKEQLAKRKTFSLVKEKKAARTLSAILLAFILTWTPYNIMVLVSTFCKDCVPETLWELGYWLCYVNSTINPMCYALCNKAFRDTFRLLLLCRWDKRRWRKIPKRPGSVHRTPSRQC
Summary of the method: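 Compounds tested as agonists at 11 concentrations in triplicate, with calcium traces captured over 3 minutes. Cells were HEK293 with stable human CHRM1 expression, plated overnight at 25K/well and loaded with calcium dye. Responses normalized to carbachol EC100 and fitted by four-parameter nonlinear regression.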

[2] = target: T2, human cloned CHRM5 receptor (M5_CHO) (Homo sapiens, UniProt P08912); assay: CHRM5 Ca++ Flux Assay (agonist mode, FDSS 7000EX); assay type: cell-based; conditions: for Emax: Percent Activity measured to EC100 of Carbachol, read-out: M5 FDSS PA; for EC50: agonist mode, geometric mean if tested more than once, read-out: M5 FDSS EC50
T2 construct: expressed in transfected cells; host or cells: CHO (M5_CHO)
T2 sequence (P08912 1-532): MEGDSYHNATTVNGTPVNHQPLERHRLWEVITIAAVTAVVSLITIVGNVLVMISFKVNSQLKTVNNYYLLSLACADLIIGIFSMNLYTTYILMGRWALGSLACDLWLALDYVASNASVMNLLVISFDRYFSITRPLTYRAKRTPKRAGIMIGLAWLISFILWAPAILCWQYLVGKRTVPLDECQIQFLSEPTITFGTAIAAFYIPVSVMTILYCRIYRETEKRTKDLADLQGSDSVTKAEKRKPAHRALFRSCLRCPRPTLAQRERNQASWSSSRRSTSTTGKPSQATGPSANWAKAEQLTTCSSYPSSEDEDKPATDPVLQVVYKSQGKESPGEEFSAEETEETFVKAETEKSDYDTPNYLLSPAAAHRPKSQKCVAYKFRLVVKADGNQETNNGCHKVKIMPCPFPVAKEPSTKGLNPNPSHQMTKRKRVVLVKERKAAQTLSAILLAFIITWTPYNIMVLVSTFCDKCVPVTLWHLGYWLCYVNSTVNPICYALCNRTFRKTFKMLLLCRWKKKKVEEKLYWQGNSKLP
Summary of the method: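 Fluorescent intracellular Ca++ signal, recorded for 3 min, served as read-out for CHO-K1 cells stably carrying human M3 or M5 receptor. Triplicate 11-point dose responses were averaged and fitted to a four-parameter model, with percent activity referenced to the carbachol EC100.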

Row | SMILES | Emax [1] [%] | EC50 [1] [nM] | Emax [2] [%] | EC50 [2] [nM]
1 | FC1(COc2ccccc2C2CCN([C@@H]3CCC4(C3)CN(c3nnco3)C4)CC2)CCOCC1 [Example 2D, (R)-2-(6-(4-(2-((4-fluorotetrahydro-2H-pyran-4-yl)methoxy)phenyl)piperidin-1-yl)-2-azaspiro[3.4]octan-2-yl)-1,3,4-oxadiazole] | 82 | 141 | 0 | > 25000
2 | CC1(COc2ccccc2C2CCN([C@@H]3CCC4(C3)CN(c3nnco3)C4)CC2)CCOCC1 [Example 2E, (R)-2-(6-(4-(2-((4-methyltetrahydro-2H-pyran-4-yl)methoxy)phenyl)piperidin-1-yl)-2-azaspiro[3.4]octan-2-yl)-1,3,4-oxadiazole] | 78 | 381 | 0 | > 25000
3 | c1ccc(C2CCN([C@@H]3CCC4(C3)CN(c3nnco3)C4)CC2)c(OC2CCOCC2)c1 [Example 2F, (R)-2-(6-(4-(2-((tetrahydro-2H-pyran-4-yl)oxy)phenyl)piperidin-1-yl)-2-azaspiro[3.4]octan-2-yl)-1,3,4-oxadiazole] | 112 | 277 | 0 | > 25000
4 | c1ccc(C2CCN([C@@H]3CCC4(C3)CN(c3nnco3)C4)CC2)c(OCC2CCOCC2)c1 [Example 2G, (R)-2-(6-(4-(2-((tetrahydro-2H-pyran-4-yl)methoxy)phenyl)piperidin-1-yl)-2-azaspiro[3.4]octan-2-yl)-1,3,4-oxadiazole] | 51 | 429 | 0 | > 25000
5 | c1ccc(C2CCN([C@@H]3CCC4(C3)CN(c3nnco3)C4)CC2)c(C2CCOCC2)c1 [Example 2H, (R)-2-(6-(4-(2-(tetrahydro-2H-pyran-4-yl)phenyl)piperidin-1-yl)-2-azaspiro[3.4]octan-2-yl)-1,3,4-oxadiazole] | 61 | 178 | 0 | > 25000
6 | Fc1ccc(C2CCOCC2)c(C2CCN([C@@H]3CCC4(C3)CN(c3nnco3)C4)CC2)c1 [Example 2I, (R)-2-(6-(4-(5-fluoro-2-(tetrahydro-2H-pyran-4-yl)phenyl)piperidin-1-yl)-2-azaspiro[3.4]octan-2-yl)-1,3,4-oxadiazole] | 89 | 106 | 0 | > 25000
7 | c1ccc(C2CCOC2)c(C2CCN([C@@H]3CCC4(C3)CN(c3nnco3)C4)CC2)c1 (stereo partly drawn) [Example 2K, 2-((6R)-6-(4-(2-(tetrahydrofuran-3-yl)phenyl)piperidin-1-yl)-2-azaspiro[3.4]octan-2-yl)-1,3,4-oxadiazole] | 97 | 133 | 0 | > 25000
8 | c1ccc(C2CCN([C@@H]3CCC4(C3)CN(c3nnco3)C4)CC2)c(CC2CCOCC2)c1 [Example 2L, (R)-2-(6-(4-(2-((tetrahydro-2H-pyran-4-yl)methyl)phenyl)piperidin-1-yl)-2-azaspiro[3.4]octan-2-yl)-1,3,4-oxadiazole] | 69 | 540 | 0 | > 25000
9 | c1ccc(C2CCN([C@@H]3CCC4(C3)CN(c3nnco3)C4)CC2)c(-c2ncco2)c1 [Example 2M, (R)-2-(6-(4-(2-(oxazol-2-yl)phenyl)piperidin-1-yl)-2-azaspiro[3.4]octan-2-yl)-1,3,4-oxadiazole] | 99 | 93 | 0 | > 25000

More lines, now with the values ahead:

Row | Emax [1] [%] | EC50 [1] [nM] | Emax [2] [%] | EC50 [2] [nM] | SMILES
10 | 92 | 8 | 0 | > 25000 | c1ccc(C2CCN([C@@H]3CCC4(C3)CN(c3nncs3)C4)CC2)c(OC2COC2)c1 [Example 3A, (R)-2-(6-(4-(2-(oxetan-3-yloxy)phenyl)piperidin-1-yl)-2-azaspiro[3.4]octan-2-yl)-1,3,4-thiadiazole]
11 | 83 | 51 | 0 | > 25000 | c1ccc(C2CCN([C@@H]3CCC4(C3)CN(c3nncs3)C4)CC2)c(OC[C@H]2COCCO2)c1 [Example 3B, 2-((R)-6-(4-(2-(((R)-1,4-dioxan-2-yl)methoxy)phenyl)piperidin-1-yl)-2-azaspiro[3.4]octan-2-yl)-1,3,4-thiadiazole]
12 | 88 | 41 | 0 | > 25000 | c1ccc(C2CCN([C@@H]3CCC4(C3)CN(c3nncs3)C4)CC2)c(OC[C@@H]2COCCO2)c1 [Example 3C, 2-((R)-6-(4-(2-(((S)-1,4-dioxan-2-yl)methoxy)phenyl)piperidin-1-yl)-2-azaspiro[3.4]octan-2-yl)-1,3,4-thiadiazole]
13 | 78 | 42 | 0 | > 25000 | COc1ccccc1C1CCN([C@@H]2CCC3(C2)CN(c2nncs2)C3)CC1 [Example 3D, (R)-2-(6-(4-(2-methoxyphenyl)piperidin-1-yl)-2-azaspiro[3.4]octan-2-yl)-1,3,4-thiadiazole]
14 | 87 | 54 | 0 | > 25000 | Fc1cccc(C2CCN([C@@H]3CCC4(C3)CN(c3nncs3)C4)CC2)c1OC1COC1 [Example 3E, (R)-2-(6-(4-(3-fluoro-2-(oxetan-3-yloxy)phenyl)piperidin-1-yl)-2-azaspiro[3.4]octan-2-yl)-1,3,4-thiadiazole]
15 | 68 | 40 | 0 | > 25000 | COCCOc1ccccc1C1CCN([C@@H]2CCC3(C2)CN(c2nncs2)C3)CC1 [Example 3F, (R)-2-(6-(4-(2-(2-methoxyethoxy)phenyl)piperidin-1-yl)-2-azaspiro[3.4]octan-2-yl)-1,3,4-thiadiazole]
16 | 66 | 135 | 0 | > 25000 | CC(C)(O)COc1ccccc1C1CCN([C@@H]2CCC3(C2)CN(c2nncs2)C3)CC1 [Example 3G, (R)-1-(2-(1-(2-(1,3,4-thiadiazol-2-yl)-2-azaspiro[3.4]octan-6-yl)piperidin-4-yl)phenoxy)-2-methylpropan-2-ol]
17 | 84 | 20 | 0 | > 25000 | CC(C)(O)CCOc1ccccc1C1CCN([C@@H]2CCC3(C2)CN(c2nncs2)C3)CC1 [Example 3H, (R)-4-(2-(1-(2-(1,3,4-thiadiazol-2-yl)-2-azaspiro[3.4]octan-6-yl)piperidin-4-yl)phenoxy)-2-methylbutan-2-ol]
18 | 70 | 54 | 0 | > 25000 | COc1ccccc1C1CCN([C@@H]2CCC3(C2)CN(c2ccns2)C3)CC1 [Example 3I, (R)-5-(6-(4-(2-methoxyphenyl)piperidin-1-yl)-2-azaspiro[3.4]octan-2-yl)isothiazole]
19 | 58 | 85 | 0 | > 25000 | COCCOc1ccccc1C1CCN([C@@H]2CCC3(C2)CN(c2ncns2)C3)CC1 [Example 3J, (R)-5-(6-(4-(2-(2-methoxyethoxy)phenyl)piperidin-1-yl)-2-azaspiro[3.4]octan-2-yl)-1,2,4-thiadiazole]
20 | 57 | 186 | 0 | > 25000 | CC(C)(O)COc1ccccc1C1CCN([C@@H]2CCC3(C2)CN(c2ncns2)C3)CC1 [Example 3K, (R)-1-(2-(1-(2-(1,2,4-thiadiazol-5-yl)-2-azaspiro[3.4]octan-6-yl)piperidin-4-yl)phenoxy)-2-methylpropan-2-ol]
21 | 67 | 62 | 0 | > 25000 | CC(C)(O)CCOc1ccccc1C1CCN([C@@H]2CCC3(C2)CN(c2ncns2)C3)CC1 [Example 3L, (R)-4-(2-(1-(2-(1,2,4-thiadiazol-5-yl)-2-azaspiro[3.4]octan-6-yl)piperidin-4-yl)phenoxy)-2-methylbutan-2-ol]
